{"source": "BindingDB's records for doi:10.7270/Q2CN728N", "about": "(Nmmlsc, 2008)", "note": "Structures can show the parent of a compound that is named as a salt.", "data": [{"target": "T1, Bcl-2-related protein A1 (Homo sapiens, UniProt Q16548)", "T1 sequence (Q16548 whole entry)": "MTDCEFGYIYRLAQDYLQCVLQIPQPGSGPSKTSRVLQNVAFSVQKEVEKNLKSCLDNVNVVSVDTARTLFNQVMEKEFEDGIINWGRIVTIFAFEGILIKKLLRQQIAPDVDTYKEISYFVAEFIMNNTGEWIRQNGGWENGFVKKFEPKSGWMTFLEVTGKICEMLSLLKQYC", "experiment": "Bfl-1/Bim complex disruptors – biochemical, multiplexed, bead-based flow cytometry, dose response (AID 1320)", "details": "inactive by the depositor's call; pH 7.4; 4 °C", "units": {"EC50": "µM"}, "values": [{"smiles": "CN(C)c1ncc(C2=C(Cl)C(=O)C(N3CCCC3)=C(Cl)C2=O)s1", "EC50": 0.04}, {"smiles": "Cc1onc(-c2ccccc2)c1C(=O)Nc1nnc(COc2ccc(Cl)cc2)s1", "note": "[N-{5-[(4-chlorophenoxy)methyl]-1,3,4-thiadiazol-2-yl}-5-methyl-3-phenyl-4-isoxazolecarboxamide]", "EC50": 4.36}, {"smiles": "CCOC(=O)C(=Cc1cccc(O)c1)c1nc2sc(C)c(C)c2c(=O)[nH]1", "note": "[MLS000393989]", "EC50": 9.56}, {"smiles": "COc1ccc(/C=C/C(=O)c2cc(Br)ccc(=O)c2O)cc1", "note": "[MLS000702099]", "EC50": 14}, {"smiles": "COc1ccc(/C=C(/C(=O)c2cccs2)N2C=CC=CC2=C(C#N)C#N)cc1", "note": "[2-[1-[(Z)-1-(4-methoxyphenyl)-3-oxidanylidene-3-thiophen-2-yl-prop-1-en-2-yl]pyridin-2-ylidene]propanedinitrile]", "EC50": 2.23}, {"smiles": "Cc1ccc(-c2cc(-c3ccc(Cl)cc3)c(C#N)c(N)n2)o1", "note": "[2-azanyl-4-(4-chlorophenyl)-6-(5-methylfuran-2-yl)pyridine-3-carbonitrile]", "EC50": 2.65}, {"smiles": "Cc1ccc(C)n1-c1ccc(N2CCOCC2)cc1", "note": "[MLS000111760]", "EC50": 11.4}, {"smiles": "CC(C)C(=O)NC(c1ccccc1)c1cc([N+](=O)[O-])c2cccnc2c1O", "note": "(stereo unspecified) [N-[(8-hydroxy-5-nitro-7-quinolinyl)-phenylmethyl]-2-methylpropanamide]", "EC50": 26.5}, {"smiles": "Cc1cc(C)nc(SCc2cc(=O)c(OC(=O)c3ccc(Cl)c([N+](=O)[O-])c3)co2)n1", "note": "[4-chloro-3-nitrobenzoic acid [6-[[(4,6-dimethyl-2-pyrimidinyl)thio]methyl]-4-oxo-3-pyranyl] ester]", "EC50": 19.7}, {"smiles": "Cc1ccc(/C=C/C(=O)c2ccccc(=O)c2O)cc1C", "note": "[MLS000756172]", "EC50": 14.9}, {"smiles": "COC(=O)CSc1ncnc2c1sc1nc(-c3ccco3)c3c(c12)CC(C)(C)OC3", "note": "[MLS000039339]", "EC50": 12.4}, {"smiles": "CNC(=O)c1c(N)sc2c1CCCCC2", "note": "[SMR000111700]", "EC50": 4.09}, {"smiles": "Cc1ccc(-c2ccc(/C=C3\\SC(N4CCOCC4)=NC3=O)o2)cc1", "note": "[(5Z)-5-[[5-(4-methylphenyl)-2-furanyl]methylidene]-2-(4-morpholinyl)-4-thiazolone]", "EC50": 20}, {"smiles": "NC(=O)c1c(N)sc2c1CCCCC2", "note": "[SMR000066289]", "EC50": 3.02}, {"smiles": "Cc1ccc(/C=C/C(=O)c2ccccc(=O)c2O)c(C)c1", "note": "[3-[3-(2,4-dimethylphenyl)acryloyl]-2-hydroxy-2,4,6-cycloheptatrien-1-one]", "EC50": 51.1}, {"smiles": "COc1ccc(-n2c(NC(=O)c3ccco3)c(C#N)c3nc4ccccc4nc32)cc1", "note": "[MLS000079925]", "EC50": 16.1}, {"smiles": "Cc1ccc(/C=C2/NC(=O)N(Cc3ccc(Br)cc3)C2=O)o1", "EC50": 5.22}, {"smiles": "CC(=O)Nc1ccc(-n2cc(-c3ccccc3)[nH]c2=S)cc1", "note": "[MLS001001946]", "EC50": 0.47}, {"smiles": "Cc1ccc(-c2nc3c(c(=O)[nH]c(=O)n3Cc3ccccc3)n2Cc2ccccc2)o1", "EC50": 8.43}, {"smiles": "S=c1[nH]cc(-c2ccccc2)n1-c1ccccc1", "note": "[SMR000196363]", "EC50": 1.92}, {"smiles": "O=c1c2c(-c3ccccc3)csc2nc2c3ccccc3c(NCCN3CCOCC3)nn12", "note": "[SMR000352519]", "EC50": 30.3}, {"smiles": "Cc1nc2ncccn2c1-c1csc(Nc2ccccc2)n1", "note": "[4-(2-methyl-3-imidazo[1,2-a]pyrimidinyl)-N-phenyl-2-thiazolamine]", "EC50": 11.7}, {"smiles": "Cc1ccc(C(=O)/C=C/c2ccc(-c3ccc(C)cc3)o2)cc1", "note": "[1-p-Tolyl-3-(5-p-tolyl-furan-2-yl)-propenone]", "EC50": 3.23}, {"smiles": "C/C(=C\\c1ccco1)C1Nc2cccc3cccc(c23)N1", "note": "[MLS000055728]", "EC50": 15.8}]}, {"target": "T1, Bcl-2-related protein A1", "experiment": "Bfl-1/Bim complex disruptors – biochemical, multiplexed, bead-based flow cytometry, dose response (AID 1320)", "details": "pH 7.4; 4 °C", "units": {"EC50": "µM"}, "values": [{"smiles": "O=C(c1ccccc1)c1[nH]n(-c2ccccc2)c2c(O)n(-c3ccccc3)c(=O)c1-2", "note": "[3-benzoyl-1,5-diphenyl-3a,6a-dihydropyrrolo[3,4-c]pyrazole-4,6-dione]", "EC50": 1.36}, {"smiles": "CCN(CC)C(=O)COC(=O)c1cc(-c2ccco2)nc2ccccc12", "note": "[SMR000377201]", "EC50": 1.03}, {"smiles": "CCN=c1scc(C)n1N=Cc1ccc(O)c(O)c1O", "EC50": 19.6}, {"smiles": "Nc1c(C(=O)NC2CC2)sc2nc3c(c(-c4ccco4)c12)CC/C3=C/c1ccco1", "note": "[SMR000259554]", "EC50": 1.09}, {"smiles": "Cc1cc(N)ccc1N1CCCC1", "note": "[3-methyl-4-(1-pyrrolidinyl)aniline;hydrochloride]", "EC50": 7.93}, {"smiles": "O=C1C=CC(C=NNC(=O)C(=Cc2ccc([N+](=O)[O-])cc2)NC(=O)c2ccccc2)C(O)=C1O", "note": "(stereo unspecified) [MLS000530401]", "EC50": 5.22}, {"smiles": "Cc1nc2scc(-c3ccccc3)c2c(=O)n1N=C1C=CC(=O)C=C1", "note": "[SMR000285999]", "EC50": 0.56}, {"smiles": "C=C[S+]([O-])c1sc(Cl)c(N2CCOCC2)c1[N+](=O)[O-]", "note": "(stereo unspecified) [SMR000293370]", "EC50": 0.85}, {"smiles": "O=[N+]([O-])c1ccc(N=NCc2ccc(O)c(O)c2O)c(S(=O)(=O)N2CCOCC2)c1", "note": "[MLS000336720]", "EC50": 4.48}, {"smiles": "CCN(CC)c1ccc(NC2=C(Cl)C(=O)c3ccccc3C2=O)cc1", "note": "[2-chloro-3-{[4-(diethylamino)phenyl]amino}naphthoquinone]", "EC50": 0.18}, {"smiles": "Cc1cc(-c2cc(-c3ccc(Cl)cc3)nc(N)c2C#N)co1", "note": "[2-azanyl-6-(4-chlorophenyl)-4-(5-methylfuran-3-yl)pyridine-3-carbonitrile]", "EC50": 3.86}, {"smiles": "Cc1ccc(-c2nc3c(c(=O)[nH]c(=O)n3Cc3ccccc3)n2C)o1", "note": "[7-methyl-8-(5-methyl-2-furanyl)-3-(phenylmethyl)purine-2,6-dione]", "EC50": 1.94}, {"smiles": "CCOC(=O)C1=C(Cc2ccc(C)cc2)C(=O)c2ccccc2C1=O", "note": "[ethyl 3-[(4-methylphenyl)methyl]-1,4-bis(oxidanylidene)naphthalene-2-carboxylate]", "EC50": 3.2}, {"smiles": "CCC(=O)OCCNc1cc(Sc2nc3ccccc3[nH]2)c2nonc2c1[N+](=O)[O-]", "note": "[SMR000207032]", "EC50": 1.63}, {"smiles": "O=C(NC1=C(Nc2ccc(Cl)cc2)C(=O)c2ccccc2C1=O)c1ccccc1", "EC50": 2.91}, {"smiles": "O=C(NCc1ccccn1)c1ccc2nc(-c3ccco3)c(-c3ccco3)nc2c1", "note": "[2,3-di-2-furyl-N-(pyridin-2-ylmethyl)quinoxaline-6-carboxamide]", "EC50": 3.66}, {"smiles": "O=[N+]([O-])c1c(NCCO)cc(Sc2nc3ccccc3s2)c2nonc12", "note": "[MLS000520993]", "EC50": 0.12}, {"smiles": "CCOC(=O)C1CCN(C(=O)Nc2ccc3nc(-c4ccco4)c(-c4ccco4)nc3c2)CC1", "note": "[MLS000113285]", "EC50": 1.18}, {"smiles": "CCOc1cccc(CNc2ccc(O)cc2)c1OCc1ccc(Cl)cc1", "note": "[4-[[2-[(4-chlorophenyl)methoxy]-3-ethoxyphenyl]methylamino]phenol]", "EC50": 2.8}, {"smiles": "CCN(C(=O)COC(=O)c1cc(-c2ccc(C)o2)nc2ccccc12)C1CCS(=O)(=O)C1", "note": "(stereo unspecified) [MLS001003409]", "EC50": 3.38}, {"smiles": "CN1CCc2cccc3c2[C@H]1Cc1ccc(O)c(O)c1-3", "note": "[APOMORPHINE HYDROCHLORIDE]", "EC50": 46.4}, {"smiles": "Cc1ccc(-c2cc(-c3ccc(F)cc3)nc(N)c2C#N)o1", "note": "[MLS000082831]", "EC50": 2.44}, {"smiles": "Cc1cc2nn(-c3cccc4ccccc34)nc2cc1N", "note": "[SMR000076237]", "EC50": 1.34}, {"smiles": "CN(C)c1ccc(C=C2C(=O)NC(=O)NC2=O)cc1[N+](=O)[O-]", "note": "[5-[[4-(dimethylamino)-3-nitrophenyl]methylidene]-1,3-diazinane-2,4,6-trione]", "EC50": 4.67}, {"smiles": "COc1cc(CNc2ccc(N3CCCC3)cc2)cc(Cl)c1OC", "note": "[N-[(3-chloranyl-4,5-dimethoxy-phenyl)methyl]-4-pyrrolidin-1-yl-aniline]", "EC50": 5.3}, {"smiles": "Cc1ccc(NC2=C(NC(=O)c3ccccc3)C(=O)c3ccccc3C2=O)cc1Cl", "note": "[MLS000392290]", "EC50": 2.31}, {"smiles": "Cc1ccc(-c2cc(C(=O)Nc3nccs3)c3ccccc3n2)o1", "note": "[MLS000579660]", "EC50": 9.21}]}]}
